{"source": "paper PMC3044687", "about": "“The C-Terminal Domain of the Arabinosyltransferase Mycobacterium tuberculosis EmbC Is a Lectin-Like Carbohydrate Binding Module” (PLoS Pathogens, 2011)", "key": {"[1]": {"biological_target": "EmbC^CT (C-terminal domain of M. tuberculosis EmbC, residues 719–1094) (Mycobacterium tuberculosis, UniProt P9WNL5)", "sequence (P9WNL5 719-1094 limits assumed)": "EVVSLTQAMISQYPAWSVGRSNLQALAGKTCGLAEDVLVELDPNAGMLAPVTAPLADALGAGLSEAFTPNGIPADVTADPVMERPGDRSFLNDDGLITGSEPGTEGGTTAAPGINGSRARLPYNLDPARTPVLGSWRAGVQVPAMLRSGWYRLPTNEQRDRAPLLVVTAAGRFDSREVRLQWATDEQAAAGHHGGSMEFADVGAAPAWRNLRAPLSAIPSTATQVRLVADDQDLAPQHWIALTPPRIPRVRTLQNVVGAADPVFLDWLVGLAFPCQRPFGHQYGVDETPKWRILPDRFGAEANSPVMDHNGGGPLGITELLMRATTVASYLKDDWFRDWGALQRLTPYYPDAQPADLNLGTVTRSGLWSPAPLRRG", "assay": "Solution binding assay by intrinsic tryptophan fluorescence, wild-type EmbC^CT", "conditions": "wild-type EmbC^CT 20 µM, 50 mM KH2PO4 pH 7.9, 300 mM NaCl; single site saturation fit", "description": "Intrinsic tryptophan fluorescence (ITF) experiments were carried out using a PTI QuantaMaster 40 spectrofluorimeter, recording data with the FeliX32 software package (PTI, Birmingham, New Jersey, USA). The excitation wavelength was set to 294 nm and the fluorescence emission (Femission) was recorded between 300–400 nm for each ligand aliquot added to a 200 µl solution containing 20 µM EmbC^CT in 50 mM KH2PO4 (pH 7.9), 300 mM NaCl. […] The change in fluorescence emission (ΔFemission) was calculated by subtracting Femission (recorded 2 min after each ligand addition) from Femission^max, and the data was then plotted against ligand concentration, [L] (3 independent experiments). A plot of ΔFemission at λ = 338 nm vs. [L] was fitted to the saturation binding equation using GraphPad Prism software: [drawing 1]"}, "[2]": {"system": "Araf transferase (isolated mycobacterial membranes)", "conditions": "incubated with [14C]-labelled Araf-donor DPA and isolated mycobacterial membranes; cited from earlier work"}}}
{"molecule": "CO[C@H]1O[C@H](CO[C@H]2O[C@H](CO)[C@@H](O)[C@@H]2O)[C@@H](O)[C@@H]1O", "note": "[Ara(1→5)Ara-O-C1, α-D-Araf-(1→5)-α-D-Araf-O-CH3]", "values": [{"measurement": "Fmax", "setting": "[1]", "result": 0.26}, {"measurement": "Kd", "setting": "[1]", "result": 11, "unit": "µM"}]}
{"molecule": "CCCCCCCCO[C@H]1O[C@H](CO[C@H]2O[C@H](CO[C@H]3O[C@H](CO)[C@@H](O)[C@@H]3O)[C@@H](O)[C@@H]2O)[C@@H](O)[C@@H]1O", "note": "[Ara(1→5)2Ara-O-C8, [α-D-Araf-(1→5)]2-α-D-Araf-O-(CH2)7CH3]", "values": [{"measurement": "Fmax", "setting": "[1]", "result": 0.105}, {"measurement": "Kd", "setting": "[1]", "result": 25.3, "unit": "µM"}]}
{"molecule": "CCCCCCCCO[C@H]1O[C@H](CO[C@H]2O[C@H](CO)[C@@H](O)[C@@H]2O)[C@@H](O)[C@@H]1O", "note": "[Ara(1→5)Ara-O-C8, α-D-Araf-(1→5)-α-D-Araf-O-(CH2)7CH3]", "values": [{"measurement": "Fmax", "setting": "[1]", "result": 0.22}, {"measurement": "acceptor activity (in words)", "setting": "[2]", "result": "potent acceptor mimics"}]}
{"molecule": "CCCCCCCCO[C@H]1O[C@H](CO[C@H]2O[C@H](CO[C@H]3O[C@H](CO[C@H]4O[C@H](CO[C@H]5O[C@H](CO)[C@@H](O)[C@@H]5O)[C@@H](O)[C@@H]4O)[C@@H](O)[C@@H]3O)[C@@H](O)[C@@H]2O)[C@@H](O)[C@@H]1O", "note": "[Ara(1→5)4Ara-O-C8, [α-D-Araf-(1→5)]4-α-D-Araf-O-(CH2)7CH3]", "values": [{"measurement": "Fmax", "setting": "[1]", "result": 0.157}]}
